Experimental data reported in patent publication US7855300B2, “Bis(trimethylsilyl)phenyl compound or salt thereof, and use thereof” (Taiho Pharmaceutical Co., Ltd., priority 2007, dated 2010).

Key:
[1] = tested on: JHH-7 (human hepatocellular carcinoma cell lines); test: Antitumor effect in JHH-7 orthotopic liver transplantation model; format: in vivo, male nude mice (BALB/cA Jcl-nu); details: 16 mg/kg orally once per day for 14 days; tumor weight on 15th day; T/C×100
Procedure: RARα high expression cells, i.e., human hepatocellular carcinoma cell lines JHH-7, were implanted in the outside left lobe of the liver of male nude mice (BALB/cA Jcl-nu; CLEA Japan, Inc.) under Nembutal anesthesia in an amount of 1×10^6 cells (0.02 ml) per mouse. On the 11th to 14th day after implantation, the mice were divided into groups, each consisting of seven mice. The compounds of the present invention and the reference compound TAC-101 were suspended in 0.5% HPMC and 1.6 mg/ml solution was orally administered to the mice at a liquid dose of 10 ml/kg, namely, at a dose of 16 mg/kg, once per day for 14 days. On the 15th day after the start of administration, the mice were exsanguinated to death under ether anesthesia. Tumors formed in the outside left lobe of the liver were extracted, and the tumor weight was measured to assess the antitumor effect. The antitumor effect was evaluated by calculating the tumor growth rate (%) using the following equation. The antitumor effect of each compound was analyzed by Student's test and statistical significance was determined. Tumor growth rate(%)=T/C×100 T: Average tumor weight in the groups administered with the test compounds C: Average tumor weight in the groups not administered with test compounds

[2] = Rat toxicity test, oral administration for 4 weeks; format: in vivo, male SD rats; set-up: key: +: recognized; −: not observed
Procedure: The compounds of the present invention and the reference compound TAC-101 were orally administered to male SD rats (CLEA Japan, Inc.) for 4 weeks. The dosage of each compound was 6 mg/kg or 24 mg/kg per rat. Differences in toxic symptoms were compared and studied.

[3] = tested on: Human prostatic carcinoma cell lines TSU-Pr1; test: Growth inhibitory and differentiation-inducing effect on prostate cancer cells; format: cell-based; details: 10 μM, IGF-I 10 ng/ml; for Cytostatic activity (crystal violet staining): 7th day after culturing, FIG. 5; for Change in cell shape (differentiation-inducing activity): after three days, FIG. 4
Procedure: Human prostatic carcinoma cell lines TSU-Pr1 prepared in RPMI1640 culture medium containing 2% fetal bovine serum were plated into a 24-well culture plate at a cell density of 3×10^3 cells per well. The next day, IGF-I (10 ng/ml) was added as a growth factor, and the cells were treated with Compounds 2 and 3 of the present invention and the reference compound TAC-101 each in an amount of 10 μM. Change in cell shape after three days was observed. Moreover, on the 7th day after culturing, the cells were fixed with 25% glutaraldehyde solution. Cytostatic activity was determined by the crystal violet staining method, and the statistical significance of the cytostatic activity was analyzed by Student's test. […] In the Control group that was not treated with medicine, a cobblestone-like shape and vigorous cell division were observed. Such cell shape is characteristic of epithelioid cancer cells.

[4] = tested on: Human prostatic carcinoma cell lines TSU-Pr1; test: Cancer malignancy-reducing effect (tumorigenicity of pretreated TSU-Pr1 cells implanted in nude mice); format: in vivo, male nude mice (BALB/cA Jcl-nu); details: cells treated 72 hours, six subcutaneous sites, 26th day after implantation
Procedure: Human prostatic carcinoma cell lines TSU-Pr1 were treated with Compound 3 of the present invention and the reference compound TAC-101 for 72 hours. The cells were subcutaneously implanted into male nude mice (BALB/cA Jcl-nu; CLEA Japan, Inc.) at six sites in total per mouse. On the 26th day after implantation, the rate of subcutaneous tumor formation was observed and the effect of reducing cancer malignancy was evaluated. Statistical significance was analyzed by Wilcoxon test.

[5] = tested on: non-small cell lung cancer; details: phase I study, Non-Patent Document 5; cited from earlier work

SMILES	melting point	Tumor Growth Rate (%) [1] [%]	Alopecia Symptom ([2]; 6 mg/kg)	Endocortical Proliferation ([2]; 6 mg/kg)	Alopecia Symptom ([2]; 24 mg/kg)	Endocortical Proliferation ([2]; 24 mg/kg)	Cytostatic activity (crystal violet staining) [3]	Change in cell shape (differentiation-inducing activity) [3]	Graft Survival (%) [4] [%]	Tumor Formation [4]	Clinical response [5]	Side effects [5]
C[Si](C)(C)c1cc(C(=O)Nc2ccc(/C=C/C(=O)O)cn2)cc([Si](C)(C)C)c1	302 °C (dec.)											
C[Si](C)(C)c1cc(C(=O)Nc2ccc(/C=C/C(=O)O)c(F)c2)cc([Si](C)(C)C)c1 [Compound 2, 4-[[3,5-Bis(trimethylsilyl)benzoyl]amino]-2-fluorocinnamic acid]		21	−	−	−	−	dramatic cytostatic effect was recognized	dramatic change was recognized in the shape of neuroid cells				
C[Si](C)(C)c1cc(C(=O)Nc2ccc(/C=C/C(=O)O)cc2)cc([Si](C)(C)C)c1 [Compound 3, 4-[[3,5-Bis(trimethylsilyl)benzoyl]amino]cinnamic acid]		25	−	−	−	−	dramatic cytostatic effect was recognized	dramatic change was recognized in the shape of neuroid cells	17	1/6		
C/C(=C\C(=O)O)c1ccc(NC(=O)c2cc([Si](C)(C)C)cc([Si](C)(C)C)c2)cc1 [Compound 6, (E)-3-[4-[[3,5-Bis(trimethylsilyl)benzoyl]amino]phenyl]-2-butenoic acid]		31										
C/C(=C\C(=O)O)c1ccc(NC(=O)c2cc([Si](C)(C)C)cc([Si](C)(C)C)c2)cc1F [Compound 11, (E)-3-[4-[[3,5-Bis(trimethylsilyl)benzoyl]amino]-2-fluorophenyl]-2-butenoic acid]		36										
C/C(=C\c1ccc(NC(=O)c2cc([Si](C)(C)C)cc([Si](C)(C)C)c2)cc1F)C(=O)O [Compound 14, (E)-3-[4-[[3,5-Bis(trimethylsilyl)benzoyl]amino]-2-fluorophenyl]-2-methylacrylic acid]			−	−	−	−						
C[Si](C)(C)c1cc(C(=O)Nc2ccc(C(=O)O)cc2)cc([Si](C)(C)C)c1 [TAC-101, 4-[3,5-bis(trimethylsilyl)benzamido]benzoic acid, reference compound]		52	+	−	+	+		no significant change was recognized in the shape	67	4/6	complete remission cases were reported	symptoms (skin disorders) similar to hypervitaminosis A were observed
